Tests used:
strain MNH05026 = test: Antibiotic sensitivity test by disk diffusion method, strain MNH05026; type: cell-based, Megasphaera sp.
Protocol: (§1) Antibiotic sensitivity tests of the strains MNH05026, MNH22004, and MNH27256: Antibiotic sensitivity tests were carried out on the strain MNH05026 by a disk diffusion method.

strain MNH22004 = test: Antibiotic sensitivity test by disk diffusion method, strain MNH22004; type: cell-based, Megasphaera sp.
Protocol: as §1

strain MNH27256 = test: Antibiotic sensitivity test by disk diffusion method, strain MNH27256; type: cell-based, Megasphaera sp.
Protocol: as §1

[1] = test system: ectopic syngeneic liver cancer model; test: Therapeutic effect of MNH05026 in combination with Lenvatinib on liver cancer; type: in vivo, mouse; conditions: male BALB/c mice
From the text: 104 male BALB/c mice were purchased, and inoculated with tumor cells after the quarantine was completed, to establish an ectopic syngeneic liver cancer model. The day of tumor cell inoculation was D1. […] Mice with abnormal tumor growth were discarded and the remaining mice were randomized into 10 groups according to the tumor volume on that day, with 7 mice per group. […] Group A was the Negative Control group, Group B was the positive control Lenvatinib group, Group J was the Lenvatinib+MNH05026 combination group, and Groups C-I received other test articles in combination with Lenvatinib. On the day of grouping, interventions were carried out according to the grouping. During the experiment, animal characteristics, tumor changes, tumor sizes, and mouse weights were monitored regularly. At the experimental endpoint, body weight changes, tumor volume changes, response rates, and tumor growth inhibition rates were analyzed.
(§2) Statistical analysis was performed using Two-Way ANOVA with Dunnett's multiple comparisons at the experimental endpoint. Significance of difference vs. the Control group: not significant (ns), p value≥0.05; *, p value<0.05; **, p value<0.01; ***, p value<0.001; ****, p value<0.0001.
as §2, with “FIGS. 17B and 17C present the mouse tumor volume data as mean±standard deviation (mm3). Statistical” for “Statistical”

## CC1(C)S[C@@H]2[C@H](NC(=O)[C@H](N)c3ccccc3)C(=O)N2[C@H]1C(=O)O [Ampicillin]
Strain MNH05026
  Diameter of inhibition zone by MNH05026: 19.91 mm
  Sensitivity or resistance of strain MNH05026 to the antibiotic: sensitive
Strain MNH22004
  Diameter of inhibition zone by MNH22004: 0 mm
  Sensitivity or resistance of strain MNH22004 to the antibiotic: resistant
Strain MNH27256
  Diameter of inhibition zone by MNH27256: 0 mm
  Sensitivity or resistance of strain MNH27256 to the antibiotic: resistant

## CC[C@H]1OC(=O)[C@H](C)[C@@H](O[C@H]2C[C@@](C)(OC)[C@@H](O)[C@H](C)O2)[C@H](C)[C@@H](O[C@@H]2O[C@H](C)C[C@H](N(C)C)[C@H]2O)[C@](C)(O)C[C@@H](C)C(=O)[C@H](C)[C@@H](O)[C@]1(C)O [Erythromycin]
Strain MNH05026
  Diameter of inhibition zone by MNH05026: 15.65 mm
  Sensitivity or resistance of strain MNH05026 to the antibiotic: sensitive
Strain MNH22004
  Diameter of inhibition zone by MNH22004: 21.03 mm
  Sensitivity or resistance of strain MNH22004 to the antibiotic: sensitive
Strain MNH27256
  Diameter of inhibition zone by MNH27256: 9.0 mm
  Sensitivity or resistance of strain MNH27256 to the antibiotic: sensitive

## CO/N=C(\C(=O)N[C@@H]1C(=O)N2C(C(=O)O)=C(CSc3nc(=O)c(=O)[nH]n3C)CS[C@H]12)c1csc(N)n1 [Ceftriaxone]
Strain MNH05026
  Diameter of inhibition zone by MNH05026: 29.42 mm
  Sensitivity or resistance of strain MNH05026 to the antibiotic: sensitive
Strain MNH22004
  Diameter of inhibition zone by MNH22004: 12.78 mm
  Sensitivity or resistance of strain MNH22004 to the antibiotic: sensitive
Strain MNH27256
  Diameter of inhibition zone by MNH27256: 0 mm
  Sensitivity or resistance of strain MNH27256 to the antibiotic: resistant

## Penicillin
Strain MNH05026
  Diameter of inhibition zone by MNH05026: 29.75 mm
  Sensitivity or resistance of strain MNH05026 to the antibiotic: sensitive
Strain MNH22004
  Diameter of inhibition zone by MNH22004: 0 mm
  Sensitivity or resistance of strain MNH22004 to the antibiotic: resistant
Strain MNH27256
  Diameter of inhibition zone by MNH27256: 0 mm
  Sensitivity or resistance of strain MNH27256 to the antibiotic: resistant

## O=C(N[C@H](CO)[C@H](O)c1ccc([N+](=O)[O-])cc1)C(Cl)Cl [Chloramphenicol]
Strain MNH05026
  Diameter of inhibition zone by MNH05026: 37.02 mm
  Sensitivity or resistance of strain MNH05026 to the antibiotic: sensitive
Strain MNH22004
  Diameter of inhibition zone by MNH22004: 33.29 mm
  Sensitivity or resistance of strain MNH22004 to the antibiotic: sensitive
Strain MNH27256
  Diameter of inhibition zone by MNH27256: 34.45 mm
  Sensitivity or resistance of strain MNH27256 to the antibiotic: sensitive

## O=C(O)c1cn(C2CC2)c2cc(N3CCNCC3)c(F)cc2c1=O [Ciprofloxacin]
Strain MNH05026
  Diameter of inhibition zone by MNH05026: 37.66 mm
  Sensitivity or resistance of strain MNH05026 to the antibiotic: sensitive
Strain MNH22004
  Diameter of inhibition zone by MNH22004: 35.42 mm
  Sensitivity or resistance of strain MNH22004 to the antibiotic: sensitive
Strain MNH27256
  Diameter of inhibition zone by MNH27256: 34.69 mm
  Sensitivity or resistance of strain MNH27256 to the antibiotic: sensitive

## CCC[C@@H]1C[C@@H](C(=O)N[C@@H]([C@H]2O[C@H](SC)[C@H](O)[C@@H](O)[C@H]2O)[C@@H](C)O)N(C)C1 [Lincomycin]
Strain MNH05026
  Diameter of inhibition zone by MNH05026: 38.99 mm
  Sensitivity or resistance of strain MNH05026 to the antibiotic: sensitive
Strain MNH22004
  Diameter of inhibition zone by MNH22004: 11.34 mm
  Sensitivity or resistance of strain MNH22004 to the antibiotic: sensitive
Strain MNH27256
  Diameter of inhibition zone by MNH27256: 8.81 mm
  Sensitivity or resistance of strain MNH27256 to the antibiotic: sensitive

## Trimethoprim-sulfamethoxazole
Strain MNH05026
  Diameter of inhibition zone by MNH05026: 10.65 mm
  Sensitivity or resistance of strain MNH05026 to the antibiotic: sensitive
Strain MNH22004
  Diameter of inhibition zone by MNH22004: 17.08 mm
  Sensitivity or resistance of strain MNH22004 to the antibiotic: sensitive
Strain MNH27256
  Diameter of inhibition zone by MNH27256: 12.75 mm
  Sensitivity or resistance of strain MNH27256 to the antibiotic: sensitive

## Gentamicin
Strain MNH05026
  Diameter of inhibition zone by MNH05026: 13.97 mm
  Sensitivity or resistance of strain MNH05026 to the antibiotic: sensitive
Strain MNH22004
  Diameter of inhibition zone by MNH22004: 9.00 mm
  Sensitivity or resistance of strain MNH22004 to the antibiotic: sensitive
Strain MNH27256
  Diameter of inhibition zone by MNH27256: 9.37 mm
  Sensitivity or resistance of strain MNH27256 to the antibiotic: sensitive

## COc1cc2nccc(Oc3ccc(NC(=O)NC4CC4)c(Cl)c3)c2cc1C(N)=O [Lenvatinib]
[1]
  Body weight during the experiment: increased steadily
  Response rate: 85.71%
  Tumor volume at the experimental endpoint vs Control group: significant decrease

## CN(C)[C@@H]1C(O)=C(C(N)=O)C(=O)[C@@]2(O)C(O)=C3C(=O)c4c(O)cccc4[C@@](C)(O)[C@H]3C[C@@H]12 [Tetracycline]
Strain MNH05026
  Diameter of inhibition zone by MNH05026: 21.44 mm
Strain MNH22004
  Diameter of inhibition zone by MNH22004: 10.48 mm
Strain MNH27256
  Diameter of inhibition zone by MNH27256: 17.75 mm

Source: US20250288619A1, “PHARMACEUTICAL COMPOSITION, MEGASPHAERA, AND USE THEREOF” (MOON (GUANGZHOU) BIOTECH CO., LTD., priority 2022, published 2025)
